In ChEMBL document CHEMBL3880396, “Calcium channel inhibitors comprising benzhydril spaced from piperazine” (2004):

Legend:
[1] = Selectivity ratio of IC50 for alpha1A/alpha2delta/beta1b P/Q-type calcium channel (unknown origin) to IC50 for rat brain […] N-type calcium channel
[2] = Selectivity ratio of IC50 for alpha1C/alpha2delta/beta1b L-type calcium channel (unknown origin) to IC50 for rat brain […] N-type calcium channel

Row | Compound | Ratio IC50 [1] | Ratio IC50 [2]
1 | COc1ccc(C(c2ccc(C(F)(F)F)cc2)N2CCN(C(=O)CC(c3ccccc3)c3ccccc3)CC2)cc1 (configuration not stated) | 41 | > 54
2 | O=C(CC(c1ccccc1)c1ccccc1)N1CCN(C(c2ccccc2)c2ccc(Cl)cc2)CC1 (configuration not stated) | 28 | 831
3 | O=C(O)C1CN(C(c2ccccc2)c2ccccc2)CCN1C(=O)CC(c1ccccc1)c1ccccc1 (configuration not stated) | 9.4 | 103
4 | CCOC(=O)C1CN(C(c2ccccc2)c2ccccc2)CCN1C(=O)CC(c1ccccc1)c1ccccc1 (configuration not stated) | 69 | 2880
5 | CC(C)(C)c1cc(C(c2ccccc2)N2CCN(C(=O)CC(c3ccccc3)c3ccccc3)CC2)cc(C(C)(C)C)c1O (configuration not stated) | > 40 | > 40
6 | O=C(CC(c1ccccc1)c1ccccc1)N1CCN(C(c2ccccc2)c2ccc(C(F)(F)F)cc2)CC1 (configuration not stated) | 5.1 | 103
